Data as given in US20190175551A1, “MEDICINE FOR TREATING RENAL DISEASE” (Daiichi Sankyo Company, Limited, priority 2016, published 2019).

Experiments:
[1] = system: DOCA/sodium chloride-loaded hypertension model; test: Ameliorative effect on a renal disorder in the DOCA/sodium chloride-loaded hypertension model (kidney histopathology); assay type: in vivo, male WKY rats; settings: for Glomerulosclerosis score / Tubular disorder score, Cortical side / Tubular disorder score, Medullary side: 15 weeks old, score 0 to 4, mean±standard error, n=6
Procedure: Deoxycorticosterone acetate (DOCA)/sodium chloride-loaded hypertension model was prepared by the following procedure. 6 Week-old male WKY rats (WKY/Izm, SPF grade, produced by Funabashi Farm Co., Ltd.) were subjected to unilateral nephrectomy, diet containing 4% sodium chloride (4% NaCl-containing FR-2, manufactured by Funabashi Farm Co., Ltd.) was given from 7 weeks old by free feeding, and DOCA was administered subcutaneously once a week. DOCA was suspended in a 0.5% carboxymethylcellulose solution (20 mg/mL) and administered in an amount corresponding to 1 mL/kg. The group to which DOCA was not administered was designated as DOCA non-administration group and the group to which DOCA was administered was designated as DOCA administration group.
At 11 weeks old, some of the animals in the DOCA non-administration group were dissected and the other animals in the DOCA non-administration group were designated as normal group (Group 1). At the same time, some of the animals in the DOCA administration group were also dissected, and the others of the DOCA administration group were divided into the following groups (Groups 2 to 4).
Group 1: normal group, n=6 animals
Group 2; control group, n=6 animals
Group 3; compound (Ia) administration group [compound (Ia) 3 mg/kg], n=6 animals
Group 4: DOCA administration interruption+compound (Ia) administration group [compound (Ia) 3 mg/kg], n=6 animals
The dosing schedule of test drugs for each group after 11 weeks is as follows.
To Group 1, oral administration of a 0.5% methylcellulose solution was continued for 4 weeks. To Group 2, oral administration of 0.5% methylcellulose solution and subcutaneous administration (once a week) of DOCA were continued for 4 weeks. To Group 3, oral administration of compound (Ia) suspended in 0.5% methylcellulose solution (2 mL/kg) and subcutaneous administration (once a week) of DOCA were continued for 4 weeks.
To Group 4, only oral administration of compound (Ia) suspended in 0.5% methylcellulose solution (2 mL/kg) was continued for 4 weeks.
At the end of 4 weeks of administration of the test drug or the like (at the age of 15 weeks old), all animals were dissected.
At 7, 11, 13 and 15 weeks old, 24-hour urine collections were conducted using metabolic cages (2100-R, Watanabe Isolator Systems Co., Ltd.). Daily urinary protein excretion was calculated from the urine protein concentration (measured by BiOLiS 24i premium [Tokyo Boeki Medisys Inc.]) and urine volume.
At the time of dissection at 11 and 15 weeks old, the kidneys were isolated and weighed, and the kidney weight per body weight was calculated.
Furthermore, histopathological sections were prepared from a part of the isolated kidneys, and histopathological evaluation (scoring of glomerulosclerosis and tubular disorder) was conducted. For glomerulosclerosis, 30 glomeruli were selected at random for each sample, and the degree of glomerulosclerosis of each sample was quantified on the basis of 5 stages (0 to 4) to determine an average value of 30 values, which was used as a score of the sample (Uehara Y, et al., Hypertens. Res. 1992; 15, pp 17-26). For tubular disorder, for each of the cortical and medullary sides, 10 fields of view were selected for each sample, the degree of tubular disorder was quantified on the basis of 5 stages (0 to 4) to determine the average value of values for each 10 fields of view, which was used as a score of the sample (Uehara Y, et al., Hypertens. Res. 1992; 15, pp 17-26). Results are shown in Table 3 (each numerical value in the table represents the mean±standard error).

[2] = system: patients with type 2 diabetes mellitus having albumin urine; test: Phase II randomized, placebo controlled, double-blind clinical study of compound (Ia) (Example 3); assay type: in vivo, human; settings: for Reduction rate of UACR (geometric mean) from baseline at the end of dosing / Remission rate of UACR: 12 weeks; for Remission rate of UACR: UACR <30 mg/g Cr at 11 and 12 weeks and decreased by 30% or more
Procedure: A clinical study targeted to patients with type 2 diabetes mellitus having albumin urine was conducted to evaluate the efficacy and safety of the like of compound
(Ia). This study is a Phase II randomized, placebo controlled, double-blind comparison study. Each of the patients was subjected to a washout period of 4 to 12 weeks followed by treatment comprising administrating placebo or compound (Ia) (0.625 mg, 1.25 mg, 2.5 mg, 5 mg) once a day over a treatment period of 12 weeks.
365 Patients in Japan who met the following criteria entered this study, and an efficacy and safety analysis set included 358 cases.
1. The patient is with type 2 diabetes mellitus; 2. The patient is 20 years old or more at the time of consent; 3. Urine albumin/creatinine ratio (UACR) is 45 mg/g Cr or more and less than 300 mg/g Cr; 4. Estimated glomerular filtration rate calculated with serum creatinine (eGFRcreat) is 30 mL/min/1.73 m^2 or more; and 5. The patient has been subjected to treatment with an angiotensin-converting enzyme inhibitor or an angiotensin II receptor antagonist (and optionally a calcium antagonist) since at least 3 months before the start of treatment.
The patient was followed up for approximately 6 weeks after the end of dosing, and evaluated for change in UACR from baseline, remission rate of UACR and numerical value of eGFR as well as safety.
Remission rate of UACR (%)=(number of subjects in remission÷number of all subjects to be analyzed)×100

[3] = Group 3: 3 mg/kg oral for 4 weeks with continued DOCA
[4] = Group 4: DOCA administration interruption + 3 mg/kg oral for 4 weeks

Q: How did the “Effect on renal disorders (proteinuria, renal hypertrophy, glomerulosclerosis and tubular disorder)” value ([1]; 3 mg/kg oral for 4 weeks, disease model animals) turn out when `Cc1c(C(=O)Nc2ccc(S(C)(=O)=O)cc2)cn(CCO)c1-c1ccccc1C(F)(F)F` (atropisomer, axis not shown) [compound (Ia), (S)-1-(2-hydroxyethyl)-4-methyl-N-[4-(methylsulfonyl)phenyl]-5-[2-(trifluoromethyl)phenyl]-1H-pyrrole-3-carboxamide] was run?
A: excellent ameliorative effect

Q: And the Glomerulosclerosis score [1, 3]?
A: 0.29 ± 0.05

Q: And the “Tubular disorder score, Cortical side” value [1, 3]?
A: 1.02 ± 0.07

Q: And the “Tubular disorder score, Medullary side” value [1, 3]?
A: 1.73 ± 0.04

Q: What about the “Effect on renal disorders versus normal group” value [1, 4] of the same compound?
A: ameliorated almost to the normal group level

Q: What about the Glomerulosclerosis score [1, 4] of the same compound?
A: 0.20 ± 0.04

Q: What about the “Tubular disorder score, Cortical side” value [1, 4] of the same compound?
A: 0.67 ± 0.06

Q: And the “Tubular disorder score, Medullary side” value [1, 4]?
A: 1.42 ± 0.11

Q: And the “Reduction rate of UACR (geometric mean) from baseline at the end of dosing” value (“Reduction rate of UACR (geometric mean)” below) ([2]; 0.625 mg once a day)?
A: 21%

Q: And the “Remission rate of UACR” value ([2]; 0.625 mg once a day)?
A: 7.5%

Q: What about the “Reduction rate of UACR (geometric mean)” value ([2]; 1.25 mg once a day) of the same compound?
A: 37%

Q: What about the “Remission rate of UACR” value ([2]; 1.25 mg once a day) of the same compound?
A: 12.3%

Q: And the “Reduction rate of UACR (geometric mean)” value ([2]; 2.5 mg once a day)?
A: 50%

Q: What about the “Remission rate of UACR” value ([2]; 2.5 mg once a day) of the same compound?
A: 21.2%

Q: And the “Reduction rate of UACR (geometric mean)” value ([2]; 5 mg once a day)?
A: 56%

Q: What about the “Remission rate of UACR” value ([2]; 5 mg once a day) of the same compound?
A: 21.1%

Q: What about the “Therapeutic effect (UACR reducing effect and increase in remission rate)” value ([2]; patients without sufficient effect on ACE inhibitor or angiotensin II receptor antagonist (optionally calcium antagonist)) of the same compound?
A: excellent therapeutic effect
